Several values for one entry are separate records, joined by “and”; a condition that tells them apart may be missing. Equal entries are not always repeated. Activity calls are given as the source filed them.
How the values were obtained:
[1] = target: T1, Zinc finger protein mex-5 (Caenorhabditis elegans, UniProt Q9XUB2); test: MEX-5/TCR-2 RNA interaction inhibitors, dose response, biochemical, C. elegans, fluorescence polarization (AID 1960)
T1 sequence (Q9XUB2 whole entry): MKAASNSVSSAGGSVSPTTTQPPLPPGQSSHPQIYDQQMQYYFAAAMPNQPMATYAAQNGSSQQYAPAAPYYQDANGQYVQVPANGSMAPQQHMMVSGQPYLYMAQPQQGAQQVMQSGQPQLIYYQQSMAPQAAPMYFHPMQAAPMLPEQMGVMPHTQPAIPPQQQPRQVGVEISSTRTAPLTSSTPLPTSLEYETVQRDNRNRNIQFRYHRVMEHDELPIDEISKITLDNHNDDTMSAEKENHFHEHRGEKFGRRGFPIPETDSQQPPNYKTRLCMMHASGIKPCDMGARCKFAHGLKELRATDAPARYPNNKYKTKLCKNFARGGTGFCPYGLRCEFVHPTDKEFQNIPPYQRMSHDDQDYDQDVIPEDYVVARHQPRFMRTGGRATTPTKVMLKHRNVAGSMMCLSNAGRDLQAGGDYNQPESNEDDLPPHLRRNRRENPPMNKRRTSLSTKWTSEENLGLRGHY

[2] = C. albicans growth with fluconazole, confirmation, fluorescence, retest (AID 2467); type: functional, cell-based
[3] = test system: INS1; test: beta cell apoptosis inhibitors, cytokine rescue, dose response, luminescence, retest (AID 449756); type: functional, cell-based; details: Rattus norvegicus;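 also: cell death triggered by IL-1 beta plus TNF-alpha plus IFN-gamma mixture; protective hits raise ATP signal compared with cytokine alone wells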
[4] = target: Tyrosine-protein kinase JAK2 (Homo sapiens, UniProt O60674); type: functional;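 also: JAK2 tested as one member of a kinase panel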
Sequence of Tyrosine-protein kinase JAK2 (O60674 whole entry): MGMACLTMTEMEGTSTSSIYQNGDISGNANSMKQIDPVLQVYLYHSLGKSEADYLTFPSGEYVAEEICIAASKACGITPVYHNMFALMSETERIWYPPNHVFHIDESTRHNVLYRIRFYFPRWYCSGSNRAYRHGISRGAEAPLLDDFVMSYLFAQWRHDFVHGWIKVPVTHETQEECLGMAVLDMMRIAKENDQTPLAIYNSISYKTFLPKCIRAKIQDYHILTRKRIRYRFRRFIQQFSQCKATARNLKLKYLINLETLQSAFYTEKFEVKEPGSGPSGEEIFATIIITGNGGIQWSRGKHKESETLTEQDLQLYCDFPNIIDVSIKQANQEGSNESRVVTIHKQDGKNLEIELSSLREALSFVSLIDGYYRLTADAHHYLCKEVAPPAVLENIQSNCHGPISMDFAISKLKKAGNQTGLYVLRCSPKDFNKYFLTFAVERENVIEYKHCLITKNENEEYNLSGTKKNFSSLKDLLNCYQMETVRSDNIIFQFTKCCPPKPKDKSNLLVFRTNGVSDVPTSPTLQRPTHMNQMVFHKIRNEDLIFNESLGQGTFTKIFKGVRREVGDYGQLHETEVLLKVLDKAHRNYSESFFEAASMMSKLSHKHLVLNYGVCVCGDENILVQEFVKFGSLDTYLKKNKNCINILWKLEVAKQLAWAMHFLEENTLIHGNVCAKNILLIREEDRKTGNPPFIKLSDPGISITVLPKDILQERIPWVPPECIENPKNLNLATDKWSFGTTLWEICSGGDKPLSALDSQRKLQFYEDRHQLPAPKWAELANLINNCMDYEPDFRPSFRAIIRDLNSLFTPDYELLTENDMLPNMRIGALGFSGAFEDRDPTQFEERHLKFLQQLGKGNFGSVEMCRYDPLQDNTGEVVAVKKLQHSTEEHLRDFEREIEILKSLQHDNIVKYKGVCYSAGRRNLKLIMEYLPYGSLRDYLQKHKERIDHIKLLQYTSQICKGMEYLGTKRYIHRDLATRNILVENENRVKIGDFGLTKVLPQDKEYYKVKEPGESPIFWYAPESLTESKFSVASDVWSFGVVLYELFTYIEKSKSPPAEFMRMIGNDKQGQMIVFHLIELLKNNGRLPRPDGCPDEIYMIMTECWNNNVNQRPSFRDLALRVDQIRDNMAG

[5] = target: 5'-AMP-activated protein kinase catalytic subunit alpha-1 (Homo sapiens, UniProt Q13131); type: functional
Sequence of 5'-AMP-activated protein kinase catalytic subunit alpha-1 (Q13131 whole entry): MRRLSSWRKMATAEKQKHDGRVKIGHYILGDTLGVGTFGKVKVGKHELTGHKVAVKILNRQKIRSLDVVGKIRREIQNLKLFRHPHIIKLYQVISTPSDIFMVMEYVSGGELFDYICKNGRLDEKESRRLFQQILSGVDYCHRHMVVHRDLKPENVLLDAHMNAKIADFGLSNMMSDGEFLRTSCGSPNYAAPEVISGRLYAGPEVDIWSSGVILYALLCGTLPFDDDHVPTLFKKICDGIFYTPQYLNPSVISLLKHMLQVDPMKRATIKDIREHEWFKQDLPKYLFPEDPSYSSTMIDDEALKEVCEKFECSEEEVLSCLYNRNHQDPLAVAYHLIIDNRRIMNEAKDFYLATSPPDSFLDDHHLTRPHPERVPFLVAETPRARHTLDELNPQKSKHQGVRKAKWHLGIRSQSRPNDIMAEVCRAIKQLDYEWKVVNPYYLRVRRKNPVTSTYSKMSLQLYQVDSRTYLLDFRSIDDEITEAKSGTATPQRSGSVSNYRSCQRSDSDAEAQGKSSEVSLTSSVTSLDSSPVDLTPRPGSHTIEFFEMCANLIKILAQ

[6] = target: Calcium/calmodulin-dependent protein kinase type II subunit gamma (Homo sapiens, UniProt Q13555); type: functional
[7] = target: Eukaryotic elongation factor 2 kinase (Homo sapiens, UniProt O00418); type: functional
Sequence of Eukaryotic elongation factor 2 kinase (O00418 whole entry): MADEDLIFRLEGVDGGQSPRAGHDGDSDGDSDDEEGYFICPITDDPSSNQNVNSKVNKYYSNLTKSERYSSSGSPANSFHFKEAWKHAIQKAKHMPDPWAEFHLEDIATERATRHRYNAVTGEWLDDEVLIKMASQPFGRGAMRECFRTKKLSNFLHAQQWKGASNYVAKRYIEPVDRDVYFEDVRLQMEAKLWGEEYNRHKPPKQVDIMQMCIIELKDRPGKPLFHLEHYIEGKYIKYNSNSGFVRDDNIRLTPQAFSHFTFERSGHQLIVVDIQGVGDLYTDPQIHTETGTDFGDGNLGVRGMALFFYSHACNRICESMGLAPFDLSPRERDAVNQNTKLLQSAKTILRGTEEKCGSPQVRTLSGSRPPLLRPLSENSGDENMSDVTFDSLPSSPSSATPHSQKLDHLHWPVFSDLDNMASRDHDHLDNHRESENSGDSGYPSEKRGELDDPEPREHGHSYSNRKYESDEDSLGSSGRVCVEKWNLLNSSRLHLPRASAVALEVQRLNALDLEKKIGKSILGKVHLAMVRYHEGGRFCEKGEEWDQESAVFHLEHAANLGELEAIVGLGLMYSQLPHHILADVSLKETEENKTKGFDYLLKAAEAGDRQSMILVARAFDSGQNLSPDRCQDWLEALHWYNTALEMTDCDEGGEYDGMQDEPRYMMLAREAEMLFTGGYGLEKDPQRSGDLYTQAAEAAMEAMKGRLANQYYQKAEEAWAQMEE

[8] = target: MAP kinase-activated protein kinase 5 (Homo sapiens, UniProt Q8IW41); type: functional;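 also: measured as one member of a kinome panel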
Sequence of MAP kinase-activated protein kinase 5 (Q8IW41 whole entry): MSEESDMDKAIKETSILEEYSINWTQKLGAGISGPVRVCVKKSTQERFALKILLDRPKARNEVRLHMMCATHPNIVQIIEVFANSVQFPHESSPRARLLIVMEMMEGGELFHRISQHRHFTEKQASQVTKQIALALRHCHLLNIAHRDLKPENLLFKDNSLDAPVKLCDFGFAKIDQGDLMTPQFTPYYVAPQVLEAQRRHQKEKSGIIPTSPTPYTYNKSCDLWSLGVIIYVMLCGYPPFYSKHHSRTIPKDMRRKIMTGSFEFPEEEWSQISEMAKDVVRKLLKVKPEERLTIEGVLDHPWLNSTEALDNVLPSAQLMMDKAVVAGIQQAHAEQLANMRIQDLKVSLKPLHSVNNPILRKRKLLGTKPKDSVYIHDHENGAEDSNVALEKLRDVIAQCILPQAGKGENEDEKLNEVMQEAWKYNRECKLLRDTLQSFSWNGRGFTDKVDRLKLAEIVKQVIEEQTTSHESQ

[9] = target: Serine/threonine-protein kinase PAK 1 (Homo sapiens, UniProt Q13153); type: functional
Sequence of Serine/threonine-protein kinase PAK 1 (Q13153 whole entry, the tested form may be a part): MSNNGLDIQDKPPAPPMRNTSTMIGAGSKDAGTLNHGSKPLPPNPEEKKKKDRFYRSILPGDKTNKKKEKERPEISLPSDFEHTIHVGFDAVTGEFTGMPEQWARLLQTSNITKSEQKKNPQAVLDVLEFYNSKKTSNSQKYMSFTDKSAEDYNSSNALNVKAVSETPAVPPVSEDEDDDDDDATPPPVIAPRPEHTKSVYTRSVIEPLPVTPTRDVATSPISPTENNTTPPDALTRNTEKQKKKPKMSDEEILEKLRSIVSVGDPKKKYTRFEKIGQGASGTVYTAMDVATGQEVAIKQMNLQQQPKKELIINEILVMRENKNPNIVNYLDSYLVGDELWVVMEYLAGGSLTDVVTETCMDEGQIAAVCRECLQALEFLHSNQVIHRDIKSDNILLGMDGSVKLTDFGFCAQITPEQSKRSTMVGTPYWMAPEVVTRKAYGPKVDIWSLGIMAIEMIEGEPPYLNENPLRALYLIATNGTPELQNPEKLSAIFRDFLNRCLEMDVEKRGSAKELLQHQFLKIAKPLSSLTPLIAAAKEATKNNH

[10] = target: LIM domain kinase 1 (Homo sapiens, UniProt P53667); test: Navigating the Kinome. Panel member name: LIMK1; type: functional
[11] = target: Tyrosine-protein kinase Blk (Homo sapiens, UniProt P51451); type: functional;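 also: obtained as one member of a kinome-wide kinase assay panel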
[12] = target: MAP/microtubule affinity-regulating kinase 3 (Homo sapiens, UniProt P27448); type: functional;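 also: MARK3 affinity measured as one member of a kinome panel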
[13] = target: Protein kinase C gamma type (Homo sapiens, UniProt P05129); type: functional
[14] = target: Receptor-type tyrosine-protein kinase FLT3 (Homo sapiens, UniProt P36888); type: functional;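 also: FLT3 was tested as one member of a kinome-wide kinase panel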
[15] = target: Cyclin-dependent kinase 5 (Homo sapiens, UniProt Q00535); type: functional;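 also: CDK5 measured as one member of a kinase profiling panel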
[16] = target: Mitogen-activated protein kinase 1 (Homo sapiens, UniProt P28482); type: functional
[17] = target: Aurora kinase B (Homo sapiens, UniProt Q96GD4); type: functional
Sequence of Aurora kinase B (Q96GD4 whole entry): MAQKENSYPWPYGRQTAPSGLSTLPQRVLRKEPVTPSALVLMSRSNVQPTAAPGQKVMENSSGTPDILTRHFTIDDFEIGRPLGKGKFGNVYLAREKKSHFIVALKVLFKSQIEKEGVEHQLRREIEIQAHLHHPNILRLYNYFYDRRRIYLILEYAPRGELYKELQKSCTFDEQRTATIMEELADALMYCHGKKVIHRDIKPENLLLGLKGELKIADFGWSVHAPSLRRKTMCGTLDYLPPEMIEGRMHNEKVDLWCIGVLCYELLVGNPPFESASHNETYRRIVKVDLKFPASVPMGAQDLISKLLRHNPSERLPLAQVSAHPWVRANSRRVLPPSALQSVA

[18] = target: Mitogen-activated protein kinase kinase kinase kinase 5 (Homo sapiens, UniProt Q9Y4K4); type: functional;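 also: measured as one member of a kinome-spanning kinase panel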
[19] = target: Rho-associated protein kinase 1 (Homo sapiens, UniProt Q13464); type: functional;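 also: measured within a broad kinome-wide panel profiling many kinases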
[20] = target: Serine/threonine-protein kinase Nek2 (Homo sapiens, UniProt P51955); type: functional
[21] = target: Serine/threonine-protein kinase PLK1 (Homo sapiens, UniProt P53350); type: functional;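 also: PLK1 measured as one member of a kinome-wide profiling panel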
Sequence of Serine/threonine-protein kinase PLK1 (P53350 whole entry): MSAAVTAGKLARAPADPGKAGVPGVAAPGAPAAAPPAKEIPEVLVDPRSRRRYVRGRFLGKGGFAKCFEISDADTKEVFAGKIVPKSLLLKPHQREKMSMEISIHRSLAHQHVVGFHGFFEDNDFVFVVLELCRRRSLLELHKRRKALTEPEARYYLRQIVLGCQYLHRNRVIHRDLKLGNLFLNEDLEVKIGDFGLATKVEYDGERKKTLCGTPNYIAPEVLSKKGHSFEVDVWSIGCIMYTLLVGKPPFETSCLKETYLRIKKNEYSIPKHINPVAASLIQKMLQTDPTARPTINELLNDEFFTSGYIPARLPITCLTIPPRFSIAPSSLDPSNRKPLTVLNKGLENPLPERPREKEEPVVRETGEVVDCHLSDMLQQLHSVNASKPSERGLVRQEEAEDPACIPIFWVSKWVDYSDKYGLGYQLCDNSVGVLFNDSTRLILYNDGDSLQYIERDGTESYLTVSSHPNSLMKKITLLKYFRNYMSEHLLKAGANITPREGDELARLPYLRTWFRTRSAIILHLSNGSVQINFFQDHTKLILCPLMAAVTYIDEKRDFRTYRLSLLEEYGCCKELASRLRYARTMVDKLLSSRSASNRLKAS

[22] = target: BDNF/NT-3 growth factors receptor (Homo sapiens, UniProt Q16620); type: functional;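 also: NTRK2 measured as one member of a broad kinome-wide kinase profiling panel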
[23] = target: Serine/threonine-protein kinase MRCK alpha (Homo sapiens, UniProt Q5VT25); type: functional
[24] = target: Macrophage colony-stimulating factor 1 receptor (Homo sapiens, UniProt P07333); type: functional;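 also: value comes from the Navigating the Kinome screening panel, CSF1R member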
[25] = target: Dual specificity tyrosine-phosphorylation-regulated kinase 1A (Homo sapiens, UniProt Q13627); type: functional;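 also: measured against DYRK1A as one member of a broad kinome profiling panel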
[26] = target: Serine/threonine-protein kinase 3 (Homo sapiens, UniProt Q13188); type: functional;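 also: measured as one member of a kinome-wide kinase panel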
[27] = target: Tyrosyl-DNA phosphodiesterase 2 (Homo sapiens, UniProt O95551); test: human TDP2 enzyme inhibitors, dose response, biochemical, epi absorbance, IC50 (AID 743297)
Sequence of Tyrosyl-DNA phosphodiesterase 2 (O95551 whole entry): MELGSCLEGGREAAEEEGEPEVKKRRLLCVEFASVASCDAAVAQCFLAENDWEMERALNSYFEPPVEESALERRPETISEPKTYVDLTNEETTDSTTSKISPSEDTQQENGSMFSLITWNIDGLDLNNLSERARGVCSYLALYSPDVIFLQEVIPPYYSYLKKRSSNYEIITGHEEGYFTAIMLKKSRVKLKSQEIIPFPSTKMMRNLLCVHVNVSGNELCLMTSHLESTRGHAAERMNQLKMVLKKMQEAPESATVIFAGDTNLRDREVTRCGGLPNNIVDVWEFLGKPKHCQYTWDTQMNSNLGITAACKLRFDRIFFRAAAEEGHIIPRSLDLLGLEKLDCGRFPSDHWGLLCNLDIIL

[28] = target: T2, Mannose-6-phosphate isomerase (Homo sapiens, UniProt P34949); test: inhibitors of human PMI, primary screen, biochemical, fluorescence intensity, coupled assay (AID 1209)
T2 sequence (P34949 whole entry): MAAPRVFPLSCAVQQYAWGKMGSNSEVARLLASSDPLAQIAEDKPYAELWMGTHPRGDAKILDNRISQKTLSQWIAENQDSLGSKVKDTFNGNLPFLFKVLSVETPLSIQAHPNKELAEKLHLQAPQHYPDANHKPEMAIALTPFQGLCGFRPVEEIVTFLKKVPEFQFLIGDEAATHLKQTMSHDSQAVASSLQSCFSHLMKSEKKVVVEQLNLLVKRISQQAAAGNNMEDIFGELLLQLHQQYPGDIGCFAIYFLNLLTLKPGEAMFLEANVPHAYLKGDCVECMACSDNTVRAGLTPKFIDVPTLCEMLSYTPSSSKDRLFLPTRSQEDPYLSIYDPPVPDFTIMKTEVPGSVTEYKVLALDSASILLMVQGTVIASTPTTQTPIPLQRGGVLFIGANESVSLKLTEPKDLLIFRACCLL

[29] = target: T3, Phosphomannomutase 2 (Homo sapiens, UniProt O15305); test: Counter screen SAR assay for PMM2 inhibitors via a fluorescence intensity assay. [Related pubchem assays (depositor defined):AID1545, AID1574]
T3 sequence (O15305 whole entry): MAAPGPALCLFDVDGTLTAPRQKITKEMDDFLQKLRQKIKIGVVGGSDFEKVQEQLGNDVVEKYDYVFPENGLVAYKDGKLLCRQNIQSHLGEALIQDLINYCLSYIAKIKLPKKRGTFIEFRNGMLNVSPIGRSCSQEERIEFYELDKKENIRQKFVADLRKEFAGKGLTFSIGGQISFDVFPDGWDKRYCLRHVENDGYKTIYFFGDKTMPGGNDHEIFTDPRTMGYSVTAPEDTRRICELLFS

[30] = cells; type: functional

In the case of N/C(=N\N=C/c1ccc(-c2ccc(O)c(C(=O)O)c2)o1)N[N+](=O)[O-], the EC50 [1] is reported as 26.1 µM (active).
With CCCC(=O)NC(c1ccc(Cl)cc1)c1ccc2cccnc2c1O (stereo not given) the EC50 [2] was 0.365 µM (active) and the AC50 [3] was 0.458 µM (active).
With Cc1cccc(NC(=O)Nc2ccc3c(c2)CCc2sc4ncnc(N)c4c2-3)c1 the Ki [4] was > 1.58 µM (inactive), the Ki [5] was 0.398 µM (active) and the Ki [6] was > 6.31 µM (inactive). The Ki [7] was > 3.98 µM (inactive), the Ki [8] was > 1.58 µM (inactive) and the Ki [9] was > 10 µM (inactive). For the same compound, the Ki [10] was 0.631 µM (active), the Ki [11] was 0.126 µM (active) and the Ki [12] was 3.16 µM (active). For the same compound, the Ki [13] was > 7.94 µM (inactive), the Ki [14] was 0.002 µM (active) and the Ki [15] was > 10 µM (inactive). For the same compound, the Ki [16] was > 7.94 µM (inactive), the Ki [17] was 0.0316 µM (active) and the Ki [18] was 0.501 µM (active). The Ki [19] was 0.794 µM (active), the Ki [20] was > 10 µM (inactive) and the Ki [21] was > 7.94 µM (inactive). For the same compound, the Ki [22] was 0.2 µM (active), the Ki [23] was > 10 µM (inactive) and the Ki [24] was > 2.51 µM (inactive). The Ki [25] was 0.316 µM (active) and the Ki [26] was > 7.94 µM (inactive).
In the case of CC(=O)N(/N=C1\Sc2ccccc2C1=O)c1ccccc1C, the IC50 [27] is reported as 7.67 µM (active).
In the case of Cc1ccc(-n2sc3ccccc3c2=O)cc1, the IC50 [28] is reported as 6.78 µM (active), the IC50 [29] is reported as > 100 µM (inactive) and 38 µM (active) and the IC50 [30] is reported as 22.4 µM (active).
